One assay deals with T1, human nAChRα6-α3 chimera, in addition to β2 and β3^V273S subunits (Homo sapiens, UniProt P32297+Q15825).
T1 construct: expressed in transfected cells
T1 sequence (Q05901 25-458 V273S): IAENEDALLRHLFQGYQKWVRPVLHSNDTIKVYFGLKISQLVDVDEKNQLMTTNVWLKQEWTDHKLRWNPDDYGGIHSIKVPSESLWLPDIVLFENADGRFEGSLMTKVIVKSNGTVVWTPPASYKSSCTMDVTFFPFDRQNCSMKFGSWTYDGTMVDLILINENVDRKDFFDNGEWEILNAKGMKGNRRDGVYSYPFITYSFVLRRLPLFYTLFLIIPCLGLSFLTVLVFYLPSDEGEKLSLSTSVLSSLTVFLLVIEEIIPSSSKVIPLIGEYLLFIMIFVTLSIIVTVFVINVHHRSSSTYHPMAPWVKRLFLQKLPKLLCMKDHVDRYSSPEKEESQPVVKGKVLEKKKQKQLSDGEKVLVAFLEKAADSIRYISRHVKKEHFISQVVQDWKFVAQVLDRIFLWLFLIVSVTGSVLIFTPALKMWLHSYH
T1 sequence (P17787 26-502, stated change not applied, further chain): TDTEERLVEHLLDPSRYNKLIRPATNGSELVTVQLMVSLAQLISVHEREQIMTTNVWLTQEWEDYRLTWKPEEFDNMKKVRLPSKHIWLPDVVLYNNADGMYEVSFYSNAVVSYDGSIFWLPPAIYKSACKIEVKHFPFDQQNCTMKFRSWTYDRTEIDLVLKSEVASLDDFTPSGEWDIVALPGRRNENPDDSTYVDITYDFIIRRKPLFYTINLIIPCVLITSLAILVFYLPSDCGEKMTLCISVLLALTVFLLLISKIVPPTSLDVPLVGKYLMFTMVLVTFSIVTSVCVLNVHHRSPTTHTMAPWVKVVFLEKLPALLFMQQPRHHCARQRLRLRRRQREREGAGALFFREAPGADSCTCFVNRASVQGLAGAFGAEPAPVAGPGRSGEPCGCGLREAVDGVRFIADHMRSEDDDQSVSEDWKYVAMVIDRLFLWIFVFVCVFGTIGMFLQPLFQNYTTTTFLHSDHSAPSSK
T1 sequence (Q15825+P32297 fused with the stated changes): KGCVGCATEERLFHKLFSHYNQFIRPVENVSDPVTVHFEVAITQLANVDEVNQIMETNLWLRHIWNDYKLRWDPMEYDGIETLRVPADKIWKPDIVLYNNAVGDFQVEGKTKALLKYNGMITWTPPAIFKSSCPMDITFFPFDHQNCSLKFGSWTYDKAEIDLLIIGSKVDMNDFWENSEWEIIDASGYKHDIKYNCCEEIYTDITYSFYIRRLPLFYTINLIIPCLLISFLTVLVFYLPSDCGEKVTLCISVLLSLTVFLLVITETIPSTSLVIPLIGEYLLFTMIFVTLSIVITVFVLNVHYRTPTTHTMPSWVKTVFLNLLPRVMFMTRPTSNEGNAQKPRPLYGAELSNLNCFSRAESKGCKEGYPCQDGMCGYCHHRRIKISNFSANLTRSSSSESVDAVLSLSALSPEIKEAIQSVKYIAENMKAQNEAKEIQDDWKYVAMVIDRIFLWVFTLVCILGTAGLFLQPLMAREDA
The experiment in a line: fluorescence-based calcium assay: inhibition of nicotine stimulated nAChRα6 activity (FLIPR). Conditions: HEK cell line stably expressing the receptor; 10 min pre-incubation, nicotine EC80; 10-point curve, duplicate wells; read-out: IC50. As to the method:
The ability of the test compounds to inhibit nicotine stimulated nAChRα6 activity was determined in a fluorescence-based calcium assay. Compound activity was determined using a HEK cell line stably expressing a human nAChRα6-α3 chimera, in addition to β2 and β3^V273S subunits (as in Capelli et al, Br J Pharmacol 163(2): 313-29 2011). In this cell line, nicotine stimulated an increase in intracellular calcium concentration, measured as an increase in fluorescence when cells were incubated with a calcium sensitive dye. Test compounds were pre-incubated with cells prior to nicotine stimulation to detect any reduction in the magnitude of the nicotine response.
The day prior to the assay, compounds were serially diluted in DMSO (200× final assay concentration (FAC)), in 384-well plates which were then stored in the dark at room temperature (RT) until use. Cells were seeded at 20 k/well in black, poly-D-lysine coated, clear bottom 384-well plates and incubated for 4 hours at 37° C., followed by overnight incubation at 30° C. The following day, the DMSO compound plate was diluted 1:20 (10×FAC) in assay buffer (HEPES buffered saline solution with 10 mM HEPES, 0.1% bovine serum albumin, 1 mM probenecid). A nicotine solution was prepared in assay buffer (7×FAC) and dispensed into a 384-well plate. The growth media was removed from the cell plate, replaced with 53 μl calcium dye/well (Calcium 5; Molecular Devices) and the plate incubated at 30° C. for 45 minutes. Test compounds were then added to the cells (7 μl of 10×FAC) and incubated for 10 minutes, after which nicotine EC80 (10 μl of 7×FAC) was added and changes in fluorescence measured using a FLIPR plate reader (Molecular Devices).
Compound activity was examined using a 10-point, half-log concentration-response range and each concentration was tested in duplicate wells.
Take `COc1ccc(-c2c(C)nc(NCC3CCCN3C)nc2OC)c(F)c1` (centres unmarked) [Example 75, 5-(2-fluoro-4-methoxyphenyl)-4-methoxy-6-methyl-N-((1-methylpyrrolidin-2-yl)methyl)pyrimidin-2-amine]: the IC50 turned out to be 0.094 µM.
`COc1ccc(-c2nnc(NC3CCCN(C)C3)nc2C)c(F)c1` (single isomer, unassigned) [Example 69b, 6-(2-fluoro-4-methoxyphenyl)-5-methyl-N-(1-methylpiperidin-3-yl)-1,2,4-triazin-3-amine]: the concentration for half-maximal inhibition (IC50) turned out to be 0.309 µM.
Still for that read-out and setting: next, `Cc1nc(NC[C@H]2CCCN2C)ncc1-c1ccc(C(F)(F)F)cc1F` [Example 91a, (R)-5-(2-fluoro-4-(trifluoromethyl)phenyl)-4-methyl-N-((1-methylpyrrolidin-2-yl)methyl)pyrimidin-2-amine]: 0.008 µM; `CCN1CCC[C@@H](Nc2ncc(-c3ccc(F)cc3F)c(C)n2)C1` (single isomer, unassigned) [Example 78a]: 0.061 µM.
As for `Cc1nc(NC(C)[C@H]2CCCN2C)ncc1-c1ccc(C(F)(F)F)cc1F` (single isomer, unassigned) [Example 131a, 5-(2-fluoro-4-(trifluoromethyl)phenyl)-4-methyl-N-((1*R)-1-((2R)-1-methylpyrrolidin-2-yl)ethyl)pyrimidin-2-amine], the IC50 was found to be 0.172 µM.
For the compound `COc1ccc(-c2cnc(NC3CCCN(C(C)C)C3)nc2C)c(F)c1` (centres unmarked) [Example 48, 5-(2-fluoro-4-methoxyphenyl)-N-(1-isopropylpiperidin-3-yl)-4-methyl-pyrimidin-2-amine], the half-inhibitory concentration (IC50) turned out to be 0.083 µM.
Consider `Cc1nc(NC[C@@H]2CCCNC2)ncc1-c1ccc(C(F)(F)F)cc1F` [Example 113, (R)-5-(2-fluoro-4-(trifluoromethyl)phenyl)-4-methyl-N-((3-piperidinyl)methyl)pyrimidin-2-amine], for which the concentration for half-maximal inhibition (IC50) worked out at 0.045 µM.
For `Cc1nc(NC2CC(N(C)C)C2)ncc1-c1ccc(F)cc1F` (single isomer, unassigned) [Example 68b, N^1-(5-(2,4-difluorophenyl)-4-methyl-pyrimidin-2-yl)-N^3,N^3-dimethylcyclobutane-1,3-diamine], the IC50 is 0.067 µM.
Same read-out and setting: next, `Cc1nc(NC(C)C2CCN(C)C2)ncc1-c1ccc(F)cc1F` (single isomer, unassigned) [Example 64b, 5-(2,4-difluorophenyl)-4-methyl-N-(1-(1-methylpyrrolidin-3-yl)ethyl) pyrimidin-2-amine]: 0.088 µM; `Cc1nc(NC2CCN(C)CC2)ncc1-c1ccc(OC(F)(F)F)cc1F` [Example 89, 5-(2-fluoro-4-(trifluoromethoxy)phenyl)-4-methyl-N-(1-methylpiperidin-4-yl)pyrimidin-2-amine]: 0.18 µM.
As to `Cc1nc(N[C@H]2CC[C@H](N)C2)ncc1-c1ccc(C(F)(F)F)cc1F` [Example 111, (1S,3S)—N^3-(5-(2-fluoro-4-(trifluoromethyl)phenyl)-4-methyl-pyrimidin-2-yl)cyclopentane-1,3-diamine], the concentration for half-maximal inhibition (IC50) came out at 0.09 µM.
Turning to `COc1ccc(-c2nnc(NCC3CCCCN3C)nc2C)c(F)c1` (single isomer, unassigned) [Example 57b, 6-(2-fluoro-4-methoxyphenyl)-5-methyl-N-((1-methylpiperidin-2-yl)methyl)-1,2,4-triazin-3-amine], the IC50 stood at 0.144 µM.
Same read-out and setting: next, `Cc1nc(NC[C@@H]2CCCN2CC(F)(F)F)ncc1-c1ccc(F)cc1F` [Example 95b, (S)-5-(2,4-difluorophenyl)-4-methyl-N-((1-(2,2,2-trifluoroethyl)pyrrolidin-2-yl)methyl)pyrimidin-2-amine]: 0.07 µM; `[2H]C([2H])([2H])N1CCC[C@@H]1CNc1ncc(-c2ccc(F)cc2F)c(C)n1` [Example 90b, (R)-5-(2,4-difluorophenyl)-4-methyl-N-((1-(trideuteriomethyl)pyrrolidin-2-yl)methyl)pyrimidin-2-amine]: 0.186 µM.
On the same count and under the same terms, under `Cc1nc(NCC2NCCC2(F)F)ncc1-c1ccc(F)cc1F` (single isomer, unassigned) [Example 83a, 5-(2,4-difluorophenyl)-N-((3,3-difluoropyrrolidin-2-yl)methyl)-4-methyl-pyrimidin-2-amine] stands 1.15 µM.
For `CCN1CCC[C@H]1CNc1ncc(-c2ccc(C(F)(F)F)cc2F)c(C)n1` [Example 105, (S)—N-((1-ethylpyrrolidin-2-yl)methyl)-5-(2-fluoro-4-(trifluoromethyl)phenyl)-4-methyl-pyrimidin-2-amine], the IC50 was 0.05 µM.
For `Cc1nc(NCC2CCC(C)N2C)ncc1-c1ccc(C(F)(F)F)cc1F` (single isomer, unassigned) [Example 138b, N-(((2*S,5*S)-1,5-dimethylpyrrolidin-2-yl)methyl)-5-(2-fluoro-4-(trifluoromethyl)phenyl)-4-methyl-pyrimidin-2-amine], the IC50 stood at 0.085 µM.
For `Cc1nc(NC2CCN3CCCC23)ncc1-c1ccc(OC(F)(F)F)cc1F` (single isomer, unassigned) [Example 97d, N-(5-(2-fluoro-4-(trifluoromethoxy)phenyl)-4-methyl-pyrimidin-2-yl)hexahydro-1H-pyrrolizin-1-amine], the half-inhibitory concentration (IC50) was determined as 0.299 µM.
`[2H]C([2H])([2H])N1CCCC1CNc1ncc(-c2ccc(F)cc2F)c(C)n1` (centres unmarked) [Example 87]: the IC50 was found to be 0.045 µM.
As for `Cc1nc(NC2CCN(C)CC2)ncc1-c1ccc(F)cc1F` [Example 71, 5-(2,4-difluorophenyl)-4-methyl-N-(1-methylpiperidin-4-yl)pyrimidin-2-amine], the 50% inhibitory concentration (IC50) worked out at 0.054 µM.
The same measure, in the same setting: next, `COc1ccc(F)c(-c2cnc(NCC3CCCN(C)C3)nc2C)c1` (centres unmarked) [Example 34, 5-(2-fluoro-5-methoxyphenyl)-4-methyl-N-((1-methylpiperidin-3-yl)methyl) pyrimidin-2-amine]: 0.13 µM; `Cc1nc(NC[C@]2(C)CCCN2)ncc1-c1ccc(C(F)(F)F)cc1F` [Example 134, (S)-5-(2-fluoro-4-(trifluoromethyl)phenyl)-4-methyl-N-((2-methyl-pyrrolidin-2-yl)methyl)pyrimidin-2-amine]: 0.101 µM; `Cc1nc(NC2CCN3CCCC23)ncc1-c1ccc(F)cc1F` (single isomer, unassigned) [Example 86b, N-(5-(2,4-difluorophenyl)-4-methyl-pyrimidin-2-yl)hexahydro-1H-pyrrolizin-1-amine]: 0.126 µM.
As to `Cc1nc(NC2CCCC(N(C)C)C2)nnc1-c1ccc(F)cc1F` (single isomer, unassigned) [Example 39a, N^1-(6-(2,4-difluorophenyl)-5-methyl-1,2,4-triazin-3-yl)-N^3,N^3-dimethylcyclohexane-1,3-diamine], the IC50 came out at 0.904 µM.
As for `COc1ccc(-c2c(C)nc(NCC3CCCN3C)nc2C)c(F)c1` (centres unmarked) [Example 70, 5-(2-fluoro-4-methoxyphenyl)-4,6-dimethyl-N-((1-methylpyrrolidin-2-yl)methyl)pyrimidin-2-amine], the IC50 is 0.072 µM.
For `Cc1nc(NC[C@H]2CCCN2)ncc1-c1ccc(F)cc1F` [Example 94a, (R)-5-(2,4-difluorophenyl)-4-methyl-N-(pyrrolidin-2-ylmethyl)pyrimidin-2-amine], the IC50 amounted to 0.005 µM.
The same measure, in the same setting: next, `Cc1nc(N[C@@H]2CNC[C@@H]2F)ncc1-c1ccc(C(F)(F)F)cc1F` (relative stereo) [Example 112, N-((cis)-4-fluoropyrrolidin-3-yl)-5-(2-fluoro-4-(trifluoromethyl)phenyl)-4-methyl-pyrimidin-2-amine]: 0.107 µM; `Cc1nc(NCC2C(F)CCN2C)ncc1-c1ccc(F)cc1F` (single isomer, unassigned) [Example 96a, 5-(2,4-difluorophenyl)-N-((3-fluoro-1-methylpyrrolidin-2-yl)methyl)-4-methyl-pyrimidin-2-amine]: 0.151 µM.
Consider `Cc1nc(N[C@H]2C[C@H]3CC[C@@H](C2)N3)ncc1-c1ccc(C(F)(F)F)cc1F` [Example 121, (1R,3s,5S)—N-(5-(2-fluoro-4-(trifluoromethyl)phenyl)-4-methyl-pyrimidin-2-yl)-8-azabicyclo[3.2.1]octan-3-amine], for which the half-maximal inhibitory concentration (IC50) worked out at 0.191 µM.
On the same count and under the same terms, under `Cc1nc(NC2CCN3CCCC23)ncc1-c1ccc(F)cc1F` (single isomer, unassigned) [Example 86a, N-(5-(2,4-difluorophenyl)-4-methyl-pyrimidin-2-yl)hexahydro-1H-pyrrolizin-1-amine] stands 0.122 µM; under `COc1ccc(-c2cnc(NCC3CCCCN3C)nc2C)c(F)c1` (centres unmarked) [Example 17, 5-(2-fluoro-4-methoxyphenyl)-4-methyl-N-((1-methylpiperidin-2-yl)methyl) pyrimidin-2-amine], 0.02 µM.

Still in this assay, the particulars now being: IC50 (μM), HEK cell line stably expressing the receptor; 10 min pre-incubation, nicotine EC80; 10-point curve, duplicate wells.
Turning to `Cc1nc(N[C@@H]2CCCNC2)ncc1-c1ccc(C(F)(F)F)cc1F` [Example 128, (R)-5-(2-fluoro-4-(trifluoromethyl)phenyl)-4-methyl-N-(piperidin-3-yl) pyrimidin-2-amine], the IC50 turned out to be 0.18 µM.

For orientation: IC50 means the midpoint of a concentration-inhibition curve.

The values above are taken from patent publication US20240059677A1, “SUBSTITUTED PYRIMIDINE DERIVATIVES AS NICOTINIC ACETYLCHOLINESTERASE RECEPTOR ALPHA 6 MODULATOR” (priority 2020, published 2024).
